Target: T1, human ferroportin (Homo sapiens, UniProt Q9NP59)
T1 construct: luciferase reporter (read with the Nano-Glo Luciferase Assay System); expressed in transfected cells; host or cells: CHO cells, stably transfected, expression induced with doxycycline
T1 sequence (Q9NP59 1-571): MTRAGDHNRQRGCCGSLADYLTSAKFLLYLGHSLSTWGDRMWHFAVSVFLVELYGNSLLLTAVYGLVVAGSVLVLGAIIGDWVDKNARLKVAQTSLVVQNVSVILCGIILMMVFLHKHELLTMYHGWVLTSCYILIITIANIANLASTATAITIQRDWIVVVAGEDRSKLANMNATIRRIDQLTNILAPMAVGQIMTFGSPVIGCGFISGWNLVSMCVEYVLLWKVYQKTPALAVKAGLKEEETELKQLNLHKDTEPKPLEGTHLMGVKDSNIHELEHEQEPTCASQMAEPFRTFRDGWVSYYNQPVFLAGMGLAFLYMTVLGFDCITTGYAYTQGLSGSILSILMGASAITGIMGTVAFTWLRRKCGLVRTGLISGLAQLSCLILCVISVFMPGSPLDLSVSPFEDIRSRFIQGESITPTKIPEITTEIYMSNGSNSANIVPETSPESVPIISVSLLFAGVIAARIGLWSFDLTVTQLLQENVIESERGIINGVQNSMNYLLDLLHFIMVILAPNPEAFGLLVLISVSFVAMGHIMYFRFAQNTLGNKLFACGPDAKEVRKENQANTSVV
Experiment: Biological in-vitro ferroportin internalization assay (luciferase reporter)
Type: cell-based
Conditions: average pEC50; stably-transfected CHO cell line expressing human ferroportin tagged to a luciferase reporter; 6 h incubation with test compound
Experimental: The protocol for this assay is generally as described in WO2018/128828, incorporated herein by reference in its entirety. Functional internalization of ferroportin protein was measured using a stably-transfected CHO cell line expressing the human ferroportin tagged to a luciferase reporter. Cells were plated for 24 h in the presence of ferric ammonium citrate (FAC). Ferroportin protein expression was induced with doxycycline for 24 h. The next day, the compounds were added. Test compounds were dissolved in DMSO. Cells were incubated with the test compounds for 6 h, and subsequently luciferase activity was measured using the Nano-Glo Luciferase Assay System and Glomax (Promega, Madison, Wis.). The average pEC50 was determined for the test compounds.

| SMILES | pEC50 |
| --- | --- |
| COc1ccnc(-c2nc3c(c(N(C)CC(=O)N[C@@H]4CCC[C@H]4O)n2)CCC3)c1 (relative stereo) [Compound 172, N-[(1R,2R)-2-hydroxycyclopentyl]-2-{[2-(4-methoxypyridin-2-yl)-5H,6H,7H-cyclopenta[d]pyrimidin-4-yl](methyl)amino}acetamide] | 7.5 |
| CN(CC(=O)NC(C)(C)C)c1nc(-c2cc(OCC(O)CO)ccn2)nc2c1CCC2 (stereo in doubt) [Compound 415, N-tert-butyl-2-[(2-{4-[(2R)-2,3-dihydroxypropoxy]pyridin-2-yl}-5H,6H,7H-cyclopenta[d]pyrimidin-4-yl)(methyl)amino]acetamidede] | 7.7 |
| CCC(C)(O)COc1ccnc(-c2nc3c(c(N(C)CC(=O)NC(C)(C)C)n2)CCC3)c1 (stereo in doubt) [Compound 446, N-tert-butyl-2-[(2-{4-[(2R)-2-hydroxy-2-methylbutoxy]pyridin-2-yl}-5H,6H,7H-cyclopenta[d]pyrimidin-4-yl)(methyl)amino]acetamide] | 8.2 |
| COc1cccc2c1CCN(c1nc(-c3ccccn3)nc3c1CCC3)CC2 [Compound 3, 6-methoxy-3-[2-(pyridin-2-yl)-5H,6H,7H-cyclopenta[d]pyrimidin-4-yl]-2,3,4,5-tetrahydro-1H-3-benzazepine] | 6.8 |
| O=C(CNc1nc(-c2ccccn2)nc2c1CCC2)Nc1ccccn1 [Compound 5, N-(pyridin-2-yl)-2-{[2-(pyridin-2-yl)-5H,6H,7H-cyclopenta[d]pyrimidin-4-yl]amino}acetamide] | 6.2 |
| Cc1ccnc(-c2nc3c(c(N4CCCCCC4)n2)CCC3)c1 [Compound 14, 1-[2-(4-methylpyridin-2-yl)-5H,6H,7H-cyclopenta[d]pyrimidin-4-yl]azepane] | 6.8 |
| COc1ccccc1NC(=O)CN(C)c1nc(-c2ccccn2)nc2c1CCC2 [Compound 15, N-(2-methoxyphenyl)-2-{methyl[2-(pyridin-2-yl)-5H,6H,7H-cyclopenta[d]pyrimidin-4-yl]amino}acetamide] | 6.9 |
| CN(c1nc(-c2ccccn2)nc2c1CCC2)C1(C(=O)NC2CCCCC2)CC1 [Compound 17, N-cyclohexyl-1-{methyl[2-(pyridin-2-yl)-5H,6H,7H-cyclopenta[d]pyrimidin-4-yl]amino}cyclopropane-1-carboxamide] | 6.6 |
| c1ccc(-c2nc3c(c(N4CCCO[C@H]5CCC[C@@H]54)n2)CCC3)nc1 [Compound 18, 2-{4-[(5aS,8aS)-octahydro-2H-cyclopenta[b][1,4]oxazepin-5-yl]-5H,6H,7H-cyclopenta[d]pyrimidin-2-yl}pyridine] | 7.1 |
| CN(c1nc(-c2ccccn2)nc2c1CCC2)C(C)(C)C(=O)NC(C)(C)C [Compound 19, N-tert-butyl-2-methyl-2-{methyl[2-(pyridin-2-yl)-5H,6H,7H-cyclopenta[d]pyrimidin-4-yl]amino}propanamide] | 5.4 |
| CN(CC(=O)Nc1ccc2cccnc2c1)c1nc(-c2ccccn2)nc2c1CCC2 [Compound 21, 2-{methyl[2-(pyridin-2-yl)-5H,6H,7H-cyclopenta[d]pyrimidin-4-yl]amino}-N-(quinolin-7-yl)acetamide] | 6.9 |
| CN(CC(=O)Nc1ccccc1F)c1nc(-c2ccccn2)nc2c1CCC2 [Compound 22, N-(2-fluorophenyl)-2-{methyl[2-(pyridin-2-yl)-5H,6H,7H-cyclopenta[d]pyrimidin-4-yl]amino}acetamide] | 7 |

Next, values leading:

| pEC50 | SMILES |
| --- | --- |
| 7.8 | C[C@@H]1OC[C@@H]1Oc1ccnc(-c2nc3c(c(N(C)CC(=O)NC(C)(C)C)n2)CCC3)c1 (racemic) [Compound 332, N-tert-butyl-2-{methyl[2-(4-{[(2S,3S)-2-methyloxetan-3-yl]oxy}pyridin-2-yl)-5H,6H,7H-cyclopenta[d]pyrimidin-4-yl]amino}acetamide] |
| 7.8 | C[C@H]1OC[C@@H]1Oc1ccnc(-c2nc3c(c(N(C)CC(=O)NC(C)(C)C)n2)CCC3)c1 (racemic) [Compound 333, N-tert-butyl-2-{methyl[2-(4-{[(2R,3S)-2-methyloxetan-3-yl]oxy}pyridin-2-yl)-5H,6H,7H-cyclopenta[d]pyrimidin-4-yl]amino}acetamide] |
| 7.8 | COc1ccnc(-c2nc3c(c(N(C)CC(=O)N[C@@H]4CCC[C@@H]4O)n2)CCC3)c1 (relative stereo) [Compound 170, N-[(1R,2S)-2-hydroxycyclopentyl]-2-{[2-(4-methoxypyridin-2-yl)-5H,6H,7H-cyclopenta[d]pyrimidin-4-yl](methyl)amino}acetamide] |
| 7.3 | COc1ccnc(-c2nc3c(c(N(C)CC(=O)N[C@@H]4CCCC[C@@H]4O)n2)CCC3)c1 (stereo in doubt) [Compound 168, N-[(1R,2S)-2-hydroxycyclohexyl]-2-{[2-(4-methoxypyridin-2-yl)-5H,6H,7H-cyclopenta[d]pyrimidin-4-yl](methyl)amino}acetamide] |
| 6.8 | COc1ccnc(-c2nc3c(c(N(C)CC(=O)N[C@H]4CCC[C@@H]4O)n2)CCC3)c1 (stereo in doubt) [Compound 173, N-[(1S,2S)-2-hydroxycyclopentyl]-2-{[2-(4-methoxypyridin-2-yl)-5H,6H,7H-cyclopenta[d]pyrimidin-4-yl](methyl)amino}acetamide] |
| 6.9 | c1ccc(-c2nc3c(c(N4CC5CC(C4)c4ccccc45)n2)CCC3)nc1 [Compound 1, 10-[2-(pyridin-2-yl)-5H,6H,7H-cyclopenta[d]pyrimidin-4-yl]-10-azatricyclo[6.3.1.0^{2,7}]dodeca-2,4,6-triene] |
| 6.6 | COc1ccc2c(c1)CCN(c1nc(-c3ccccn3)nc3c1CCC3)CC2 [Compound 2, 7-methoxy-3-[2-(pyridin-2-yl)-5H,6H,7H-cyclopenta[d]pyrimidin-4-yl]-2,3,4,5-tetrahydro-1H-3-benzazepine] |
| 6.4 | COc1cccc(N2CCCN(c3nc(-c4ccccn4)nc4c3CCC4)CC2)c1 [Compound 4, 1-(3-methoxyphenyl)-4-[2-(pyridin-2-yl)-5H,6H,7H-cyclopenta[d]pyrimidin-4-yl]-1,4-diazepane] |
| 6.5 | O=C(CNc1nc(-c2ccccn2)nc2c1CCC2)Nc1ccccc1F [Compound 6, N-(2-fluorophenyl)-2-{[2-(pyridin-2-yl)-5H,6H,7H-cyclopenta[d]pyrimidin-4-yl]amino}acetamide] |
| 6.6 | O=C(CNc1nc(-c2ccccn2)nc2c1CCC2)Nc1ccc2cccnc2c1 [Compound 7, 2-{[2-(pyridin-2-yl)-5H,6H,7H-cyclopenta[d]pyrimidin-4-yl]amino}-N-(quinolin-7-yl)acetamide] |
| 6.2 | CC(C)(C)NC(=O)CNc1cc(-c2ccccn2)nc2c1CCC2 [Compound 9, N-tert-butyl-2-{[2-(pyridin-2-yl)-5H,6H,7H-cyclopenta[b]pyridin-4-yl]amino}acetamide] |
| 6.6 | CC(C)(C)NC(=O)CNc1nc(-c2ccccn2)nc2c1CCCC2 [Compound 10, N-tert-butyl-2-{[2-(pyridin-2-yl)-5,6,7,8-tetrahydroquinazolin-4-yl]amino}acetamide] |
| 6.3 | COc1ccc(NC2CCCN(c3nc(-c4ccccn4)nc4c3CCC4)C2)cc1 (stereo not drawn) [Compound 11, N-(4-methoxyphenyl)-1-[2-(pyridin-2-yl)-5H,6H,7H-cyclopenta[d]pyrimidin-4-yl]piperidin-3-amine] |
| 5.8 | COc1cnc(-c2nc3c(c(N(C)CC(=O)NC(C)(C)C)n2)CCC3)cn1 [Compound 12, N-tert-butyl-2-{[2-(5-methoxypyrazin-2-yl)-5H,6H,7H-cyclopenta[d]pyrimidin-4-yl](methyl)amino}acetamide] |
| 6.4 | CN(C)c1ccnc(-c2nc3c(c(N4CCCCCC4)n2)CCC3)c1 [Compound 13, 2-[4-(azepan-1-yl)-5H,6H,7H-cyclopenta[d]pyrimidin-2-yl]-N,N-dimethylpyridin-4-amine] |
| 6.6 | CN(CC(=O)NC(C)(C)C)c1cc(-c2ccccn2)nc2c1CCC2 [Compound 16, N-tert-butyl-2-{methyl[2-(pyridin-2-yl)-5H,6H,7H-cyclopenta[b]pyridin-4-yl]amino}acetamide] |
| 6.7 | CC(C(=O)NC(C)(C)C)N(c1ccccc1)c1nc(-c2ccccn2)nc2c1CCC2 (stereo not drawn) [Compound 20, N-tert-butyl-2-{phenyl[2-(pyridin-2-yl)-5H,6H,7H-cyclopenta[d]pyrimidin-4-yl]amino}propanamide] |
| 6.9 | CN(CC(=O)NC(C)(C)C)c1nc(-c2ccccn2)nc2c1CCCC2 [Compound 23, N-tert-butyl-2-{methyl[2-(pyridin-2-yl)-5,6,7,8-tetrahydroquinazolin-4-yl]amino}acetamide] |
